Consider seven compounds from ChEMBL document CHEMBL1201862, “PubChem BioAssay data set” (2004).

Test systems include CCRF-CEM; COLO 205; HL-60; A498; IGROV-1; SK-MEL-5; TK-10; OVCAR-3; SF-268; HCT-116; SF-295; PC-3; RPMI-8226; NCI-H460; MDA-MB-435; HOP-92; ACHN; HCT-15; MDA-MB-231; KM12.
Common to all, as to test: NCI-60 cell line screen, 48 h

SMILES strings stand for the structures.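 Exposure lasted 48 hours, with cells grown in 96-well plates and compounds tested at five concentrations. The concentration for 50% growth inhibition is given as GI50.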 Active and inactive are the calls of the source. Cut-off read from the data, not from the text of the source: active = GI50 up to about 1.1 µM and inactive = higher. Where a SMILES comes first, the peptide text is derived from it. Bridges are numbered along the chain shown (N, C = ends). The star is where a group is joined. Cbz = O=C(OCc1ccccc1)*

As for `Cn1c(=O)c2c(nc(Nc3ccc(Cl)cc3)n3c(=O)n(-c4ccccc4)c(=O)n23)n(C)c1=O`, the GI50 in the test on CCRF-CEM, in the test on COLO 205, with HL-60, with A498, with IGROV-1 and in the test with SK-MEL-5 was > 100 µM (inactive) throughout. Further, the GI50 with TK-10, in the test on OVCAR-3, in the test with SF-268, with HCT-116, in the test with SF-295 and in the test with PC-3 was > 100 µM (inactive) throughout. Also, the GI50 was > 100 µM (inactive) in the test on RPMI-8226; > 100 µM (inactive) with NCI-H460; > 100 µM (inactive) with MDA-MB-435; > 100 µM (inactive) with HOP-92; > 100 µM (inactive) in the test with ACHN; > 100 µM in the test on HCT-15. For the same compound, the GI50 with MDA-MB-231 and in the test on KM12 was > 100 µM (inactive) in each case.
`COc1cc(/C=N\O)cc(/C=N/O)c1O`: the GI50 is 12.1 µM (inactive) in the test on CCRF-CEM; 22.5 µM (inactive) in the test on COLO 205; 27.7 µM (inactive) in the test on HL-60; 43.8 µM (inactive) in the test with A498; > 100 µM (inactive) with IGROV-1; 40 µM (inactive) in the test with SK-MEL-5. The GI50 with TK-10 was > 100 µM (inactive); in the test with OVCAR-3 it was 63 µM (inactive); with SF-268, 35.7 µM (inactive); in the test on HCT-116, 33.4 µM (inactive); with SF-295, 17.1 µM (inactive); with PC-3 it was 28.9 µM (inactive). In addition, the GI50 was 15.5 µM (inactive) in the test on RPMI-8226; 40.2 µM (inactive) in the test with NCI-H460; 40 µM (inactive) in the test with MDA-MB-435; 21.1 µM (inactive) in the test on HOP-92; 26.2 µM (inactive) in the test with ACHN; > 100 µM in the test on HCT-15. For the same compound, the GI50 is 47.3 µM (inactive) with MDA-MB-231 and > 100 µM (inactive) with KM12.
For the compound `N#Cc1c(=O)c2cc([N+](=O)[O-])ccc2n2c1[nH]c1ccccc12`, the GI50 with CCRF-CEM was 5.37 µM (inactive); in the test with COLO 205, 4.99 µM (inactive); in the test with HL-60 it was 4.81 µM (inactive); with A498, 1.71 µM (inactive); in the test with IGROV-1, 12.5 µM (inactive); with SK-MEL-5, 13.3 µM (inactive). Besides, the GI50 with TK-10 was 5.92 µM (inactive); with OVCAR-3, 3.43 µM (inactive); in the test with SF-268, 8.67 µM (inactive); in the test on HCT-116, 3.37 µM (inactive); in the test on SF-295, 4.2 µM (inactive); in the test on PC-3 it was 4 µM (inactive). For the same compound, the GI50 was 1.91 µM (inactive) in the test with RPMI-8226; 4.99 µM (inactive) with NCI-H460; 10.3 µM (inactive) with MDA-MB-435; 2.62 µM (inactive) with HOP-92; 9.48 µM (inactive) with ACHN; 7.64 µM in the test with HCT-15. Besides, the values for the GI50 in the test on MDA-MB-231 and in the test with KM12 were 4.76 µM (inactive) and 5.85 µM (inactive), respectively.
For `S=C(NN=C1NCCCCN1)Nc1ccc(Cl)cc1`, the GI50 in the test with CCRF-CEM was 4.48 µM (inactive); in the test with COLO 205 it was 13.1 µM (inactive); in the test on HL-60, 8.18 µM (inactive); in the test on A498, 33 µM (inactive); with IGROV-1, 16 µM (inactive); with SK-MEL-5, 5.36 µM (inactive). Besides, the GI50 is 27.3 µM (inactive) in the test with TK-10; 35.8 µM (inactive) in the test on OVCAR-3; 14.4 µM (inactive) in the test with SF-268; 7.52 µM (inactive) in the test on HCT-116; 13.7 µM (inactive) in the test on SF-295; 13.9 µM (inactive) with PC-3. Further, the GI50 with RPMI-8226 is 7.83 µM (inactive); with NCI-H460, 3.78 µM (inactive); in the test on MDA-MB-435 it was 22.9 µM (inactive); in the test on HOP-92 it was 29.8 µM (inactive); with ACHN it was 7.29 µM (inactive); in the test on HCT-15, 6.4 µM. In addition, the results for the GI50 with MDA-MB-231 and in the test on KM12 were 21 µM (inactive) and 14.5 µM (inactive), respectively.
`O=C(OC1C=C=CS(=O)(=O)CC#C/C=C\1)c1cnc2ccccc2n1` (stereo not given): the GI50 in the test on CCRF-CEM was > 100 µM (inactive); in the test with COLO 205, 63.7 µM (inactive); in the test on HL-60, 76.4 µM (inactive); in the test with A498, > 100 µM (inactive); in the test on IGROV-1, 79.6 µM (inactive); in the test with SK-MEL-5, 91.4 µM (inactive). Besides, the GI50 in the test on TK-10 is > 100 µM (inactive); with OVCAR-3, > 100 µM (inactive); with SF-268, > 100 µM (inactive); in the test on HCT-116 it was 92.3 µM (inactive); in the test on SF-295, > 100 µM (inactive); with PC-3, > 100 µM (inactive). The GI50 is 57 µM (inactive) in the test with RPMI-8226; > 100 µM (inactive) in the test with NCI-H460; > 100 µM (inactive) in the test with MDA-MB-435; 12.7 µM (inactive) in the test on HOP-92; 93.1 µM (inactive) in the test with ACHN; 48.4 µM in the test with HCT-15. Moreover, the GI50 in the test with MDA-MB-231 was 28.8 µM (inactive); in the test on KM12, > 100 µM (inactive).
As for `COC(=O)C1CCCCNC(=O)CCC(NC(=O)OCc2ccccc2)C(=O)N1` (stereo not drawn) (Cbz-Glu-Lys-OMe; lactam 1-2; configuration not given here), the GI50 in the test on CCRF-CEM, with COLO 205, in the test on HL-60, in the test with A498, with IGROV-1 and with SK-MEL-5 was > 100 µM (inactive) throughout. Besides, the GI50 in the test on TK-10 was > 100 µM (inactive); in the test on OVCAR-3 it was > 100 µM (inactive); in the test on SF-268, 56.1 µM (inactive); with HCT-116, > 100 µM (inactive); in the test on SF-295, 50.1 µM (inactive); with PC-3, > 100 µM (inactive). Further, the GI50 with RPMI-8226 was > 100 µM (inactive); in the test on NCI-H460, > 100 µM (inactive); in the test on MDA-MB-435, > 100 µM (inactive); with HOP-92, 43.6 µM (inactive); with ACHN, > 100 µM (inactive); with HCT-15, > 100 µM. In addition, the GI50 with MDA-MB-231 was 62.7 µM (inactive); in the test with KM12 it was > 100 µM (inactive).
For `c1ccc2c(Cc3c[nH]c4ccccc34)c[nH]c2c1` [ARUNDINE], the GI50 with CCRF-CEM is 12.8 µM (inactive); in the test on COLO 205, 13.6 µM (inactive); in the test with HL-60, 12.5 µM (inactive); with A498 it was 38.8 µM (inactive); with IGROV-1, 14.7 µM (inactive); in the test with SK-MEL-5 it was 13.7 µM (inactive). The GI50 is 19.4 µM (inactive) in the test on TK-10; 15.7 µM (inactive) in the test on OVCAR-3; 28.1 µM (inactive) in the test with SF-268; 17.1 µM (inactive) with HCT-116; 19.9 µM (inactive) in the test on SF-295; 18.2 µM (inactive) in the test with PC-3. The GI50 in the test on RPMI-8226 is 20.2 µM (inactive); in the test with NCI-H460, 19 µM (inactive); with MDA-MB-435, 15.6 µM (inactive); in the test on HOP-92, 16 µM (inactive); in the test on ACHN, > 100 µM (inactive); in the test with HCT-15 it was 23.4 µM. Besides, the figures for the GI50 in the test with MDA-MB-231 and in the test with KM12 were 14.3 µM (inactive) and 19.1 µM (inactive), respectively.
